Test results as given in ChEMBL document CHEMBL1201862, “PubChem BioAssay data set” (2004).
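Values below derive from 48-hour exposures of cells grown in 96-well plates, with endpoints linearly interpolated between the two concentrations bracketing the appropriate inhibition level. GI50 = concentration required for 50% inhibition of growth.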 The source made the active and inactive calls. No stated cut-off is given here; in the data, active = GI50 up to about 1.1 µM and inactive = higher.

What was measured:
Assay in all cases: inhibition of tumour cell growth, NCI panel, 48 h
CAKI-1 = test system: CAKI-1
COLO 205 = test system: COLO 205
DU-145 = test system: DU-145
HCT-15 = test system: HCT-15
Hs-578T = test system: Hs-578T
K562 = test system: K562
M14 = test system: M14
MOLT-4 = test system: MOLT-4
Malme-3M = test system: Malme-3M
NCI-H522 = test system: NCI-H522
OVCAR-3 = test system: OVCAR-3
OVCAR-5 = test system: OVCAR-5
RPMI-8226 = test system: RPMI-8226
SF-268 = test system: SF-268
SF-295 = test system: SF-295
SF-539 = test system: SF-539
SK-MEL-28 = test system: SK-MEL-28
SK-MEL-5 = test system: SK-MEL-5
SW-620 = test system: SW-620
UACC-62 = test system: UACC-62

SMILES | GI50 (CAKI-1) | GI50 (COLO 205) | GI50 (DU-145) | GI50 (HCT-15) [µM] | GI50 (Hs-578T) | GI50 (K562) | GI50 (M14) | GI50 (MOLT-4) | GI50 (Malme-3M) | GI50 (NCI-H522) | GI50 (OVCAR-3) | GI50 (OVCAR-5) | GI50 (RPMI-8226) | GI50 (SF-268) | GI50 (SF-295) | GI50 (SF-539) | GI50 (SK-MEL-28) | GI50 (SK-MEL-5) | GI50 (SW-620) | GI50 (UACC-62)
CCOC(=O)CC[C@H](N)C(=O)N[C@@H](Cc1ccc(N(CCCl)CCCl)cc1)C(=O)OCC | 0.358 µM (active) | 0.938 µM (active) | 0.324 µM (active) | 0.726 | 2.16 µM (inactive) | 0.895 µM (active) | 0.261 µM (active) | 0.0345 µM (active) | 0.291 µM (active) | 1.12 µM (active) | 0.652 µM (active) | 2.39 µM (inactive) | 2.54 µM (inactive) | 0.711 µM (active) | 3.6 µM (inactive) | 0.706 µM (active) | 0.869 µM (active) | 1.5 µM (inactive) | 0.977 µM (active) | 0.256 µM (active)
CC(=O)OCC1OC(N2C(c3ccccc3)=CC(c3ccco3)C(C#N)=C2S)C(OC(C)=O)C(OC(C)=O)C1OC(C)=O (stereo not given) | 14.7 µM (inactive) | 3 µM (inactive) | 19.7 µM (inactive) | > 100 | 2.17 µM (inactive) | 4.25 µM (inactive) | 4.65 µM (inactive) | > 22.2 µM (inactive) | 3.04 µM (inactive) | 16.6 µM (inactive) | 5.75 µM (inactive) | 6.9 µM (inactive) | 9.1 µM (inactive) | 4.63 µM (inactive) | 14.4 µM (inactive) | 2.06 µM (inactive) | 8.79 µM (inactive) | 3.01 µM (inactive) | 1.36 µM (inactive) | 13.6 µM (inactive)
c1ccc2c(c1)c1c(c3ccccc32)CN2CCCC2C1 (stereo not given) | 4.07 µM (inactive) | 3.63 µM (inactive) | 4.17 µM (inactive) | 4.09 | 2.38 µM (inactive) | 8.39 µM (inactive) | 3.67 µM (inactive) | 4.61 µM (inactive) | 2.45 µM (inactive) | 2.57 µM (inactive) | 3.26 µM (inactive) | 3.94 µM (inactive) | 4.24 µM (inactive) | 2.92 µM (inactive) | 3.09 µM (inactive) | 2.9 µM (inactive) | 2.62 µM (inactive) | 3.51 µM (inactive) | 2.45 µM (inactive) | 2.33 µM (inactive)
CC1CSC(=S)N1C(=O)N1C(=S)SCC1C (stereo not given) | 20.4 µM (inactive) | 16.3 µM (inactive) | 19.5 µM (inactive) | 16.5 | 35.7 µM (inactive) | 20.1 µM (inactive) | 21.9 µM (inactive) | 23.6 µM (inactive) | 17.1 µM (inactive) | 11.5 µM (inactive) | 27.4 µM (inactive) | 30.3 µM (inactive) | 18.7 µM (inactive) | 26.3 µM (inactive) | 45.8 µM (inactive) | 19.3 µM (inactive) | 14.3 µM (inactive) | 17 µM (inactive) | 20.4 µM (inactive) | 14.7 µM (inactive)
CCn1c(-c2ccc(OC(C)=O)cc2)c(C)c2cc(OC(C)=O)ccc21 [ZINDOXIFENE] | 24.3 µM (inactive) | 21.7 µM (inactive) | 18.5 µM (inactive) | 3.79 | 13.9 µM (inactive) | 11.8 µM (inactive) | 18.1 µM (inactive) | 8.49 µM (inactive) | 21.7 µM (inactive) | 17.4 µM (inactive) | 16.7 µM (inactive) | 24.9 µM (inactive) | 12.5 µM (inactive) | 16.6 µM (inactive) | 24 µM (inactive) | 15.8 µM (inactive) | 16.5 µM (inactive) | 13.8 µM (inactive) | 23.4 µM (inactive) | 13.2 µM (inactive)
c1ccc2c(c1)Nc1ccccc1[P+]21c2ccccc2Nc2ccccc21 | 1.61 µM (inactive) | 0.048 µM (active) | 0.318 µM (active) | 5.73 | 0.0723 µM (active) | 0.212 µM (active) | 0.351 µM (active) | 0.0525 µM (active) | 0.207 µM (active) | 0.179 µM (active) | 0.195 µM (active) | 0.281 µM (active) | 0.0314 µM (active) | 0.383 µM (active) | 1.3 µM (inactive) | 0.156 µM (active) | 0.244 µM (active) | 0.165 µM (active) | 0.279 µM (active) | 0.143 µM (active)
C1CCN(CCC2CCCCN2)CC1 (stereo not given) | > 100 µM (inactive) | > 100 µM (inactive) | > 100 µM (inactive) | > 100 | > 100 µM (inactive) | > 100 µM (inactive) | > 100 µM (inactive) | > 100 µM (inactive) | > 100 µM (inactive) | > 100 µM (inactive) | > 100 µM (inactive) | > 100 µM (inactive) | > 100 µM (inactive) | > 100 µM (inactive) | > 100 µM (inactive) | > 100 µM (inactive) | > 100 µM (inactive) | > 100 µM (inactive) | > 100 µM (inactive) | > 100 µM (inactive)
COC(=O)Oc1nn(C(=O)OC)c(=O)c2ccccc12 | > 100 µM (inactive) | 85.1 µM (inactive) | > 100 µM (inactive) | > 100 | 65.8 µM (inactive) | > 100 µM (inactive) | > 100 µM (inactive) | > 100 µM (inactive) | 42.4 µM (inactive) | > 100 µM (inactive) | > 100 µM (inactive) | > 100 µM (inactive) | > 100 µM (inactive) | > 100 µM (inactive) | > 100 µM (inactive) | 61.8 µM (inactive) | > 100 µM (inactive) | > 100 µM (inactive) | > 100 µM (inactive) | > 100 µM (inactive)
C=C(c1ccccc1)[C@@]1(O)CC[C@@H]1N(CC#N)Cc1ccccc1 | 18.9 µM (inactive) | 16.3 µM (inactive) | 80.7 µM (inactive) | 18.7 | 20.7 µM (inactive) | 42.1 µM (inactive) | 17.3 µM (inactive) | 26.3 µM (inactive) | 3.23 µM (inactive) | 20.6 µM (inactive) | 12.3 µM (inactive) | 53.6 µM (inactive) | 20 µM (inactive) | 33.5 µM (inactive) | 58.1 µM (inactive) | 29.2 µM (inactive) | 17.2 µM (inactive) | 15.9 µM (inactive) | 18.2 µM (inactive) | 17.9 µM (inactive)
C=CCOc1ccc(C2(O)c3ccccc3C3=NCCCN32)cc1 (stereo not given) | > 62.8 µM (inactive) | 19.9 µM (inactive) | > 100 µM (inactive) | > 62.2 | > 73.8 µM (inactive) | 32.4 µM (inactive) | 18.1 µM (inactive) | 33.2 µM (inactive) | 12.3 µM (inactive) | 21.2 µM (inactive) | 46.3 µM (inactive) | 72.4 µM (inactive) | 26.4 µM (inactive) | > 61.4 µM (inactive) | 51.5 µM (inactive) | 56 µM (inactive) | 24.5 µM (inactive) | 22.1 µM (inactive) | 44 µM (inactive) | 25.7 µM (inactive)
O=c1c2cc([N+](=O)[O-])ccc2n(Cc2ccccc2)n1Cc1ccccc1 | 22.2 µM (inactive) | 18.8 µM (inactive) | 17.3 µM (inactive) | 20.1 | 16.3 µM (inactive) | 6.38 µM (inactive) | 13.1 µM (inactive) | 11.8 µM (inactive) | > 17.8 µM (inactive) | 12 µM (inactive) | 15.6 µM (inactive) | > 31.6 µM (inactive) | 7.41 µM (inactive) | 24.4 µM (inactive) | 15.1 µM (inactive) | 19.2 µM (inactive) | 18.5 µM (inactive) | 4.75 µM (inactive) | 17.4 µM (inactive) | 8.63 µM (inactive)
Nc1ccc(Oc2ccc(C34CC5CC6C3CC3CC4C(C5)C6(c4ccc(Oc5ccc(N)c(O)c5)cc4)C3)cc2)cc1O | 4.5 µM (inactive) | 1.31 µM (inactive) | 4.73 µM (inactive) | 3.44 | 17.2 µM (inactive) | 2.79 µM (inactive) | 2.27 µM (inactive) | 2.29 µM (inactive) | 13.8 µM (inactive) | 1.61 µM (inactive) | 1.47 µM (inactive) | 2 µM (inactive) | 1.93 µM (inactive) | 3.33 µM (inactive) | 3.58 µM (inactive) | 0.0255 µM (active) | 7.06 µM (inactive) | 2.96 µM (inactive) | 4.25 µM (inactive) | 10.1 µM (inactive)
CC(NNC(=O)c1ccncc1)c1cccc(C(F)(F)F)c1 (stereo not given) | > 100 µM (inactive) | > 100 µM (inactive) | > 100 µM (inactive) | > 100 | > 100 µM (inactive) | > 100 µM (inactive) | > 100 µM (inactive) | > 100 µM (inactive) | > 100 µM (inactive) | > 100 µM (inactive) | 0.265 µM (active) | > 100 µM (inactive) | > 100 µM (inactive) | > 100 µM (inactive) | > 100 µM (inactive) | > 100 µM (inactive) | > 100 µM (inactive) | > 100 µM (inactive) | > 100 µM (inactive) | > 100 µM (inactive)
CC1=CC(=O)c2cccc(O)c2C1=O | 1.88 µM (inactive) | 2.09 µM (inactive) | 8.05 µM (inactive) | 1.56 | 3.07 µM (inactive) | 3.02 µM (inactive) | 1.81 µM (inactive) | 0.473 µM (active) | 1.62 µM (inactive) | 2.25 µM (inactive) | 1.53 µM (inactive) | 8.09 µM (inactive) | 3.53 µM (inactive) | 6.76 µM (inactive) | 14.3 µM (inactive) | 5.7 µM (inactive) | 4.25 µM (inactive) | 1.79 µM (inactive) | 1.99 µM (inactive) | 1.96 µM (inactive)
